Patent publication US8865672B2, “Prevention of tissue ischemia and related methods” (The United States of America, as represented by the …, priority 2006, dated 2014)
“Also recorded” adds a separate entry of the source.

Tests used:
[1] = test system: vascular cell outgrowth from muscle explants; test: Explant invasion assay in 3D collagen; type: cell-based, mouse; settings: TSP1 1 μg/ml
Description: Muscle biopsies from the pectoralis major muscle of 8 to 12 week old wild type or transgenic mice were harvested and explanted into 100 μl of type I collagen gel in 96-well tissue culture plates as described (Isenberg et al., Matrix Biol 24:110-123, 2005). Following gelation, the embedded explants were overlayed with 75 μl of EGM+2% FCS in the presence or absence of a dose range of DETA/NO (0.01-1000 μM) and other indicated treatments and then incubated at 37° C. and 5% CO2 for 7 days, at which time maximum vascular cell migration through the matrix was measured.

[2] = test system: murine WT and TSP1-null platelets; test: cGMP in murine platelets; type: cell-based, mouse; settings: WT and null platelets, TSP1 2.2 nM
Description: After induction of general anesthesia with isoflurane 2%, age and sex matched C57BL/6 WT and TSP1-null mice underwent cardiac puncture. Blood was aspirated into 1 cc syringes with a 25 gauge needle containing 100 μl heparin (Heparin Lock Flush, Abbott, Chicago, Ill.), mixed with 100 μl 3% ACD and centrifuged in 1.2 ml S-Monovette separation tubes (Sarstedt, Germany). PRP was aspirated off, centrifuged, and the resulting platelet pellet was resuspended in 200 μl of Tyrode's buffer.
Fresh human platelets at 2×10^5 platelets/μl in Tyrode's buffer or PRP were pre-incubated with the indicated agents for 15 minutes and then challenged with DEA/NO for the indicated time interval at room temperature and total cGMP determined via immunoassay (Amersham, GE Healthcare, Buckinghamshire, UK). Murine WT and TSP1-null platelets were treated with DEA/NO and cGMP flux measured.

Rap1 = Rap1 pulldown assay in platelets; type: cell-based, human; settings: thrombin
Description: Platelets were diluted to 5×10^8 platelets/mL in Tyrode's buffer and treated with various reagents for the indicated times. Immediately following treatment, platelets were pelleted at 13,000 g for 30 seconds at 4° C. and resuspended in ice-cold lysis buffer containing 20 mM HEPES (pH 7.5), 100 mM NaCl, 10 mM EGTA, 20 mM MgCl2, 8 mM α-glycerophosphate, 1% Triton X-100, 1 mM phenylmethylsulfonylfluoride, 40 mM NaF, 1 mM Na3VO4, 10 μg/mL aprotinin, and 10 μg/mL leupeptin. Lysates were centrifuged at 13,000 g for 5 minutes at 4° C. and the supernatants were incubated for 15 minutes on a tumbler at 4° C. with glutathione Sepharose 4B beads (Amersham) prebound with a GST-Ral GDS RBD fusion protein (kind gift of J. Silvio Gutkind, NIH, Bethesda, Md.). Bead complexes were washed by centrifugation at 6,000 g for 30 seconds at 4° C. followed by resuspension in 0.5 mL lysis buffer; 2 washes were performed for each sample. After the second wash, beads were resuspended in an equal volume of 2×SDS sample buffer and stored at −20° C. For Western analysis, bead-bound proteins in sample buffer were boiled for 10 minutes and subjected to electrophoresis on NuPAGE 10% Bis-Tris gels (Invitrogen, Carlsbad, Calif.), transferred to Immobilon-P PVDF membranes (Millipore, Billerica, Mass.), and blotted with rabbit polyclonal anti-Rapt (sc-65; Santa Cruz Biotechnology, Santa Cruz, Calif.).

cGK-I = target: T1, cGK-I (Homo sapiens, UniProt Q13976); test: cGK in vitro kinase assay of platelet lysates; type: biochemical
T1 construct: endogenous in cells; host or cells: washed human platelets, treated intact, then lysed
T1 sequence (Q13976 1-686 isoform Q13976-2): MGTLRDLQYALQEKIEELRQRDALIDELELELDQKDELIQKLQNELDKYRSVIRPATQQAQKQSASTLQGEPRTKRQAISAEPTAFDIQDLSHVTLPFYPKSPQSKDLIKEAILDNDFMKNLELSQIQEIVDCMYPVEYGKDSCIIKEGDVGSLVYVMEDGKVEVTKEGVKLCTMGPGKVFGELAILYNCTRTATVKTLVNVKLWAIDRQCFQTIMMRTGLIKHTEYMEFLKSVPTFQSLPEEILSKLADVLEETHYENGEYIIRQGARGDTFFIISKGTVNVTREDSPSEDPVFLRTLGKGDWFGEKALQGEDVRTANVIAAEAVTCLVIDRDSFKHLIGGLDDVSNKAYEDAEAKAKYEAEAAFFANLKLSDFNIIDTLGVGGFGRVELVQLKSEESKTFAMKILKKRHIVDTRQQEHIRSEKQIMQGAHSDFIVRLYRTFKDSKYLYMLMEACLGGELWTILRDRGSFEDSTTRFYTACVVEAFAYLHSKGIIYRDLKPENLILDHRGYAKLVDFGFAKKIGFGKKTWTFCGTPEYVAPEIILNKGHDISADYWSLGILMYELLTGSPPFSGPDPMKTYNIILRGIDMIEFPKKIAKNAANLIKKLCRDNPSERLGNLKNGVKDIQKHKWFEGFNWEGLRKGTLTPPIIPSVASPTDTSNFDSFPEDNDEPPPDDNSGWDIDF
Description: Platelets were washed as described above and resuspended in Tyrode's buffer (3×10^8 platelets/mL). Platelets were preincubated with TSP1 (2.2 nM) or Rp-8-pCPT-cGMP for 15 minutes prior to treatment with 8-Br-cGMP (100 μM) or NO (DEA/NO 10 μM) for 2 minutes. Treatment was stopped by placing the platelets on ice. Immediately following treatment, platelets were pelleted by centrifugation at 13,000×g at 4° C. for 15 seconds and resuspended in a lysis buffer containing 10 mM HEPES (pH 7.4), 1 mM EDTA, 1 mM 3-Isobutyl-1-methylxanthine, 125 mM KCl, 1 mM phenylmethysulfonylfluoride, 1 μg/ml aprotinin, and 1 μg/ml leupeptin. Resuspended platelets were sonicated on ice 3 times for 10 seconds each before centrifugation at 13,000×g for 5 minutes at 4° C. 100 μg lysate from each sample was incubated at 25° C. for 20 minutes with kinase buffer (150 μM Arg-Lys-Arg-Ser-Arg-Ala-Glu (SEQ ID NO: 17) peptide substrate (Bachem, King of Prussia, Pa.)), 10 mM HEPES pH 7.4, 35 mM β-glycerophosphate, 4 mM MgCl2, 5 μM Rp-8 pCPT-cAMPS, 0.5 mM EDTA, […] [γ-32P]ATPS (Sigma-Aldrich, St. Louis, Mo.)). Kinase assay reactions were terminated by spotting 50 μL of reaction mixture onto nitrocellulose. Nitrocellulose spots were washed 5 times each with 100 μL of 0.5% phosphoric acid before analysis with a scintillation counter.

32P-incorporation into cGK-I selective peptide (cGK-I; activation via sGC using DEA/NO in intact platelets): prevented
32P incorporation into cGK-I selective peptide (cGK-I; stimulated by 100 μM 8Br-cGMP, TSP1 2.2 nM): inhibited 32P incorporation
Substance: TSP1: thrombospondin-1 prepared from human platelets
ability to antagonize NO-stimulated vascular outgrowth ([1]; CD36-null explants): preserved
ability to antagonize NO-stimulated vascular outgrowth ([1]; CD47-null explants): lost
NO-driven flux in platelet cGMP [2]: decreased the NO-driven flux in platelet cGMP
Rap1 activation (GTP loading) (Rap1): reversed the inhibition of Rap1 activation; also recorded: did not increase Rap1 activation
